Our source for the Ki values is BindingDB's records for doi:10.1021/jm991119p (The Institute of Cancer Research, 2000).

In the assay the target is reduced folate carrier 1 (Mus musculus). Description: Affinity towards RFC (Reduced folate carrier) measured by the inhibition of [3H]MTX uptake.

Compound `C#CCN(Cc1cc2c(=O)[nH]c(C)nc2cc1C)c1ccc(C(=O)N[C@@H](CCC(=O)N[C@H](CCC(=O)O)C(=O)O)C(=O)O)cc1` showed a Ki of 200 µM.

Broadly, the Ki is a measure of affinity in units of concentration, obtained from inhibition or displacement.
